Measured values from patent publication US6537593B2, “Plant phenol as new hepatoprotective agents” (Council of Scientific and Industrial Research, priority 2000, dated 2003).

Tests used:
[1] = tested on: Male wistar rats; test: Carbon tetrachloride induced hepatotoxicity in rats (serum AST and ALT); assay type: in vivo, rat; conditions: for Protection against CCl4 induced toxicity: orally, rats
Experimental: Carbon tetrachloride is a classical method to induce free radical mediated hepatotoxicity. In order to evaluate the free radical mediated hepatotoxicity and heptoprotective properties in the compound (−)-wikstromol, this method was employed. Male wistar rats were selected for study. The compound was dissolved in a small amount of DMSO and reconstituted in gum acacia/water. The compound was given one hour before CCl4 administration to the over-night fasted rats in a dose of 250 mg/kg-body weight, orally. After one hour, a mixture of CCl4 and liquid paraffin (1:1, v/v) in the dose of 2.5 ml/kg was given orally. Fasting was continued. However, water was provided ad-libitum. After 5 hrs of CCl4 administration, blood was taken out from the retroorbital plexus. Serum aspartase transaminase and serum alanine transaminase was measured as a marker of hepatotoxicity.
Carbon tetrachloride induced toxicity was repeated as referred in the example 2 by changing the dosage level to 300 mg/kg-body weight, orally. Fasting was continued. However, water was provided ad-libitum. After 5hrs of CCl4 administration, blood was taken out from the retroorbital plexus. Serum aspartase transaminase and serum alanine transaminase was measured as a marker of hepatotoxicity.

[2] = tested on: p-388 lymphocyte leukemia; conditions: cited from earlier work
[3] = tested on: HIV; conditions: cited from earlier work
[4] = serum, 5 hours after CCl4 administration, compound 250 mg/kg orally one hour before CCl4 2.5 ml/kg, mean ± SD

COc1cc(C[C@@H]2COC(=O)[C@@]2(O)Cc2ccc(O)c(OC)c2)ccc1O [(−)-wikstromol, 4,4^1,8-trihydroxy-3,3^1-dimethoxyliganan-9,9^1-olide]
Protection against CCl4 induced toxicity ([1]; 250 mg/kg-body weight): significantly prevented CCl4 induced toxicity | Protection against CCl4 induced toxicity ([1]; 300 mg/kg-body weight): shows significant activity and prevented CCl4 induced toxicity | Hepatoprotective effectiveness ([1]; dosage of 250 to 300 mg/kg of body weight): highly effective | ALT (U/L) Before ([1]; serum alanine transaminase before oral administration of compound and CCl4, mean ± SD, 250 mg/kg group): 42 ± 7 U/L | AST (U/L) Before ([1]; serum aspartate transaminase before oral administration of compound and CCl4, mean ± SD, 250 mg/kg group): 281 ± 91 U/L | ALT (U/L) After [1, 4]: 188 ± 66 U/L | AST (U/L) After [1, 4]: 557 ± 126 U/L | Activity against p-388 lymphocyte leukemia [2]: active | Anti-HIV activity [3]: anti-HIV activity
